Target: Ras-related protein Rab-2A (Canis lupus familiaris, UniProt P61105)
Test: Rab2 wildtype GTP-binding inhibitors, SAR follow-up, biochemical, additional analogs, bead-based flow cytometry, multiplex (AID 2046)

Ras-related protein Rab-2A, sequence (P61105 whole entry): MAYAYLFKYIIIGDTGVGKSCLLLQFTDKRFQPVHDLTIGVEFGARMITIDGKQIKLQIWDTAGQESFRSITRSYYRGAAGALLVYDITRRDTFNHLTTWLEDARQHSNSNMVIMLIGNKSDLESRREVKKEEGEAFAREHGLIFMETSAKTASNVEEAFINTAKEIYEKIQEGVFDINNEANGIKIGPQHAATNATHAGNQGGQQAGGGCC

Ki [µM]	Compound
4.19	O=C1N=c2c(Br)cccc2=C1c1[nH]c2ccccc2c1NO [7-bromanyl-3-[3-(oxidanylamino)-1H-indol-2-yl]indol-2-one]
4.15	O=C1N=c2ccc(Br)cc2=C1c1[nH]c2ccccc2c1NO [5-bromanyl-3-[3-(oxidanylamino)-1H-indol-2-yl]indol-2-one]
